Measured values as given in paper PMC9837035 (Nature Communications, 2023).
Values joined by “and” are separate entries in the source; they are usually repeats but may differ in a detail not shown here. Equal entries are not always repeated.

Columns and labels:
mice = test: Mouse acute toxicity assay, survival; type: in vivo; conditions: intravenous; for Number of alive mice: 2-week observation
Procedure, shortened: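 Four-week-old female ICR mice received compounds intravenously in saline with 10% DMSO and 1% Tween 80; body weight and survival monitored.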

[1] = Hematological and hepatic parameters, 2-week repeated oral dosing; type: in vivo; conditions: rats
[2] = RK-701 10 mg/kg for two weeks, individual animals 1-5, 10 mg/kg
[3] = RK-701 30 mg/kg for two weeks, individual animals 1-5, 30 mg/kg
[4] = RK-701 100 mg/kg for two weeks, individual animals 1-5, 100 mg/kg

SMILES: Cc1c(C(=O)NC(CCC2CC2)C(=O)Nc2ccc(C#N)cc2)[nH]c2c1C(=O)CC(C)(C)C2 (centres unmarked) [RK-701]
- Number of alive mice (mice; 12.5 mg/kg): 3/3
- Number of alive mice (mice; 25 mg/kg): 3/3
- Number of alive mice (mice; 50 mg/kg): 3/3
- Number of alive mice (mice; 100 mg/kg): 3/3
- acute toxicity, survival (mice; mice): survived for two weeks
- ALB [1, 2]: 3.3 g/dL and 3.6 g/dL and 3.5 g/dL and 3.9 g/dL
- ALP [1, 2]: 498 IU/L and 658 IU/L and 651 IU/L and 305 IU/L and 323 IU/L
- ALT [1, 2]: 35 IU/L and 24 IU/L and 23 IU/L and 29 IU/L and 31 IU/L
- AST [1, 2]: 65 IU/L and 68 IU/L and 63 IU/L and 58 IU/L
- EOS [1, 2]: 0.8 x 10^2 cells/μL and 0.5 x 10^2 cells/μL and 0.6 x 10^2 cells/μL
- HCT [1, 2]: 43.6% and 43.5% and 41.3% and 46.1% and 43.9%
- HGB [1, 2]: 15.1 g/dL and 14.9 g/dL and 14.2 g/dL and 16.2 g/dL and 15.2 g/dL
- LUC [1, 2]: 0.5 x 10^2 cells/μL and 0.3 x 10^2 cells/μL and 0.2 x 10^2 cells/μL and 0.6 x 10^2 cells/μL
- Lymph [1, 2]: 60.7 x 10^2 cells/μL and 48.8 x 10^2 cells/μL and 34.7 x 10^2 cells/μL and 52.6 x 10^2 cells/μL and 60.4 x 10^2 cells/μL
- MCH [1, 2]: 20.6 pg and 20.7 pg and 19.3 pg and 20.9 pg and 20.5 pg
- MCHC [1, 2]: 34.6 g/dL and 34.4 g/dL and 35.1 g/dL and 34.7 g/dL
- MCV [1, 2]: 59.5 fL and 60.2 fL and 56.2 fL and 59.6 fL and 59.1 fL
- MONO [1, 2]: 1 x 10^2 cells/μL and 0.9 x 10^2 cells/μL and 0.6 x 10^2 cells/μL and 1.2 x 10^2 cells/μL
- NEUT [1, 2]: 8.2 x 10^2 cells/μL and 4.4 x 10^2 cells/μL and 6.1 x 10^2 cells/μL and 5.2 x 10^2 cells/μL and 8.1 x 10^2 cells/μL
- PL [1, 2]: 141 mg/dL and 106 mg/dL and 124 mg/dL and 99 mg/dL and 133 mg/dL
- PLT [1, 2]: 127.6 x 10^4 cells/μL and 123.4 x 10^4 cells/μL and 117.1 x 10^4 cells/μL and 123.6 x 10^4 cells/μL and 146.5 x 10^4 cells/μL
- RBC [1, 2]: 732 x 10^4 cells/μL and 722 x 10^4 cells/μL and 735 x 10^4 cells/μL and 773 x 10^4 cells/μL and 743 x 10^4 cells/μL
- Retic [1, 2]: 223.8 x 10^9 cells/L and 153 x 10^9 cells/L and 208.3 x 10^9 cells/L and 171.7 x 10^9 cells/L and 194.5 x 10^9 cells/L
- T-CHO [1, 2]: 87 mg/dL and 57 mg/dL and 73 mg/dL and 64 mg/dL
- TG [1, 2]: 26 mg/dL and 11 mg/dL and 19 mg/dL and 14 mg/dL and 48 mg/dL
- TP [1, 2]: 5.8 g/dL and 6.1 g/dL and 5.9 g/dL and 6.4 g/dL
- WBC [1, 2]: 71.3 x 10^2 cells/μL and 55 x 10^2 cells/μL and 42.1 x 10^2 cells/μL and 59.6 x 10^2 cells/μL and 70.9 x 10^2 cells/μL
- ALB [1, 3]: 3.3 g/dL and 3.6 g/dL and 3.5 g/dL
- ALP [1, 3]: 418 IU/L and 310 IU/L and 628 IU/L and 586 IU/L and 615 IU/L
- ALT [1, 3]: 28 IU/L and 21 IU/L and 29 IU/L and 25 IU/L
- AST [1, 3]: 71 IU/L and 66 IU/L and 59 IU/L and 54 IU/L and 70 IU/L
- EOS [1, 3]: 0.4 x 10^2 cells/μL and 0.5 x 10^2 cells/μL and 0.7 x 10^2 cells/μL and 0.3 x 10^2 cells/μL
- HCT [1, 3]: 41.9% and 44.7% and 43.2% and 41.2% and 41.8%
- HGB [1, 3]: 13.9 g/dL and 15.2 g/dL and 14.7 g/dL and 14.2 g/dL and 14.4 g/dL
- LUC [1, 3]: 0.5 x 10^2 cells/μL and 0.2 x 10^2 cells/μL and 0.6 x 10^2 cells/μL and 0.4 x 10^2 cells/μL
- Lymph [1, 3]: 67.9 x 10^2 cells/μL and 38.8 x 10^2 cells/μL and 53.8 x 10^2 cells/μL and 52 x 10^2 cells/μL and 52.5 x 10^2 cells/μL
- MCH [1, 3]: 18.8 pg and 19.5 pg and 21.3 pg and 20.8 pg
- MCHC [1, 3]: 33.3 g/dL and 33.9 g/dL and 34.1 g/dL and 34.4 g/dL
- MCV [1, 3]: 56.4 fL and 57.4 fL and 62.5 fL and 56.7 fL and 60.3 fL
- MONO [1, 3]: 1 x 10^2 cells/μL and 0.8 x 10^2 cells/μL and 0.9 x 10^2 cells/μL
- NEUT [1, 3]: 5.1 x 10^2 cells/μL and 8.7 x 10^2 cells/μL and 4.3 x 10^2 cells/μL and 6.5 x 10^2 cells/μL and 8.9 x 10^2 cells/μL
- PL [1, 3]: 116 mg/dL and 127 mg/dL and 128 mg/dL and 100 mg/dL and 113 mg/dL
- PLT [1, 3]: 120.9 x 10^4 cells/μL and 129.5 x 10^4 cells/μL and 130.8 x 10^4 cells/μL and 134.3 x 10^4 cells/μL and 95.6 x 10^4 cells/μL
- RBC [1, 3]: 742 x 10^4 cells/μL and 779 x 10^4 cells/μL and 692 x 10^4 cells/μL and 726 x 10^4 cells/μL and 693 x 10^4 cells/μL
- Retic [1, 3]: 276.8 x 10^9 cells/L and 221.1 x 10^9 cells/L and 186.9 x 10^9 cells/L and 199.2 x 10^9 cells/L and 253.8 x 10^9 cells/L
- T-CHO [1, 3]: 63 mg/dL and 69 mg/dL and 62 mg/dL and 58 mg/dL and 68 mg/dL
- TG [1, 3]: 16 mg/dL and 19 mg/dL and 25 mg/dL and 12 mg/dL and 11 mg/dL
- TP [1, 3]: 5.7 g/dL and 6.1 g/dL and 6 g/dL and 5.8 g/dL
- WBC [1, 3]: 74.9 x 10^2 cells/μL and 49.1 x 10^2 cells/μL and 60.2 x 10^2 cells/μL and 60.7 x 10^2 cells/μL and 63.2 x 10^2 cells/μL
- ALB [1, 4]: 3.4 g/dL and 3.3 g/dL and 3.2 g/dL and 3.5 g/dL
- ALP [1, 4]: 450 IU/L and 547 IU/L and 566 IU/L and 866 IU/L and 399 IU/L
- ALT [1, 4]: 37 IU/L and 26 IU/L and 28 IU/L and 29 IU/L and 25 IU/L
- AST [1, 4]: 63 IU/L and 59 IU/L and 68 IU/L and 70 IU/L and 58 IU/L
- EOS [1, 4]: 0.3 x 10^2 cells/μL and 0.6 x 10^2 cells/μL and 0.8 x 10^2 cells/μL and 0.7 x 10^2 cells/μL
- HCT [1, 4]: 43.3% and 44.1% and 41.3% and 42.5% and 43.5%
- HGB [1, 4]: 14.8 g/dL and 15 g/dL and 14.4 g/dL and 14.6 g/dL
- LUC [1, 4]: 0.4 x 10^2 cells/μL and 0.5 x 10^2 cells/μL and 0.3 x 10^2 cells/μL and 0.9 x 10^2 cells/μL
- Lymph [1, 4]: 61.6 x 10^2 cells/μL and 55.7 x 10^2 cells/μL and 66.9 x 10^2 cells/μL and 49.9 x 10^2 cells/μL and 88.7 x 10^2 cells/μL
- MCH [1, 4]: 20.2 pg and 20.4 pg and 20.6 pg and 20.1 pg
- MCHC [1, 4]: 34.3 g/dL and 34 g/dL and 34.8 g/dL and 34.4 g/dL
- MCV [1, 4]: 59 fL and 60.2 fL and 59.1 fL and 58.3 fL and 58.6 fL
- MONO [1, 4]: 1.3 x 10^2 cells/μL and 0.7 x 10^2 cells/μL and 1.6 x 10^2 cells/μL and 1 x 10^2 cells/μL and 1.4 x 10^2 cells/μL
- NEUT [1, 4]: 7.8 x 10^2 cells/μL and 2.7 x 10^2 cells/μL and 9.7 x 10^2 cells/μL and 9.5 x 10^2 cells/μL and 9.3 x 10^2 cells/μL
- PL [1, 4]: 153 mg/dL and 118 mg/dL and 132 mg/dL and 110 mg/dL and 173 mg/dL
- PLT [1, 4]: 110.2 x 10^4 cells/μL and 121.4 x 10^4 cells/μL and 96 x 10^4 cells/μL and 122.9 x 10^4 cells/μL and 114.3 x 10^4 cells/μL
- RBC [1, 4]: 733 x 10^4 cells/μL and 700 x 10^4 cells/μL and 729 x 10^4 cells/μL and 744 x 10^4 cells/μL
- Retic [1, 4]: 130.2 x 10^9 cells/L and 149.9 x 10^9 cells/L and 250.7 x 10^9 cells/L and 185.7 x 10^9 cells/L and 177.3 x 10^9 cells/L
- T-CHO [1, 4]: 94 mg/dL and 67 mg/dL and 91 mg/dL and 72 mg/dL and 116 mg/dL
- TG [1, 4]: 26 mg/dL and 19 mg/dL and 9 mg/dL and 8 mg/dL and 32 mg/dL
- TP [1, 4]: 5.6 g/dL and 5.8 g/dL and 5.9 g/dL and 5.7 g/dL and 6.2 g/dL
- WBC [1, 4]: 71.5 x 10^2 cells/μL and 60.2 x 10^2 cells/μL and 79.6 x 10^2 cells/μL and 61.2 x 10^2 cells/μL and 101.3 x 10^2 cells/μL
- effect on hematological and hepatic parameters ([1]; oral, up to 100 mg/kg, two weeks): no serious effect
- ALB ([1]; two weeks, 10 mg/kg): 3.6 ± 0.2 g/dL
- ALP ([1]; two weeks, 10 mg/kg): 487 ± 170 IU/L
- ALT ([1]; two weeks, 10 mg/kg): 28 ± 5 IU/L
- AST ([1]; two weeks, 10 mg/kg): 64 ± 4 IU/L
- EOS ([1]; two weeks, 10 mg/kg): 0.6 ± 0.1 x 102 cells/μL
- HCT ([1]; two weeks, 10 mg/kg): 43.7± 1.7%
- HGB ([1]; two weeks, 10 mg/kg): 15.1 ± 0.7 g/dL
- LUC ([1]; two weeks, 10 mg/kg): 0.4 ± 0.2 x 102 cells/μL
